According to US10561703B2, “Method of modulating sex hormone levels using a sex hormone secretion modulator” (GEMVAX & KAEL CO., LTD., priority 2013, dated 2020):

Test system: FSH
Test: FSH level in blood (serum CLIA) after repeated sc PEP-1
Type: in vivo, SD rats
Description: PEP-1 (peptide of SEQ ID NO: 1), lyophilized white powder, obtained according to the method mentioned in example 1 was dissolved in 0.9% of saline, considering the correction factor of PEP-1 (purity: 94.13%, content: 92.36%, correction factor: 1.15). 50 mg/mL stock solution was further diluted into 20 mg/mL, 2 mg/mL, and 1 mg/mL with 0.9% saline, and stored at 4° C. for a week until the use.
The purpose of this example is to confirm the change of sexual hormones in blood from SD rats with 7 days repeated daily administration of SEQ ID NO: 1 peptide, PEP-1. This experiment followed the Ethics Regulation of Animal Test by KAMSI Inc. (Korea Animal Medical Science Institute). In addition, this experiment, Non-GLP experiment, referred to the MFDS (Ministry of Food and Drug Safety) notification; Agent 2013-40 (5th April 2013), Principles of Good Laboratory Practice (1997).
SPF Rats (Crlj:CD(SD)) were purchased from ORIENTBio Inc. (Mokdong-ri, Buk-myeon, Gapyeong-gun, Gyeonggi-do, Republic of Korea). 75 male (6.5 weeks old and 190˜210 g) and 75 female (6.5 weeks old and 160˜180 g) rats were monitored for 4 days, and 64 of male and female rats (each) were selected for the experiment. Raising condition is as follows; 23±3° C. of temperature, […] of relative humidity, 10˜20 times/hr of number of air changes, 12 hours (8 a.m.˜8 p.m.) of lighting with 150˜300 Lux of intensity.
64 male and female […] (mentioned above) were divided into 8 groups. Administration regimen, for example, drugs, routes, dosages, and volumes were as follows:
The detailed administration regimen is as follows; once a day, twice a day and twice a week in each experimental group. Injection initiated at 10 a.m. every day, and each rat was injected at one minute intervals. Rats in Group 9, 10, 13 and 14 were injected twice a week. Administration of high dose test agent preceded that of low dose. The volume of injection was calculated using recently measured weight of rats, and it was 5 mL/kg. Subcutaneous injection was performed as follows; assistant tilted the back of rat upward, and experimenter sterilized the back of rat with 70% alcohol, followed by subcutaneous injection of test agent with 26 G syringe.
1.4 mL of blood sample (0.7 mL of serum) was collected after measurement of weight (Day 0). Next day (1 Day), 1.4 mL of blood sample (0.7 mL of serum) was collected twice after injection of test agent (4 hrs and 8 hrs after administration of test agent). For next 6 days (Day 2˜Day 7), 1.4 mL of blood was extracted once everyday (4 hours after injection of test agent). Dose and volume of test agent of each group followed the Table 3, and injection time zone was same every day. Blood was extracted from the jugular vein, and left at room temperature for 30 minutes. Serum was separated using centrifugation (10,000 rpm for 5 minutes), and stored at −70±5° C. in Deep freezer until the use. Blood extraction from each subject was done in the same time zone every day.
A CLIA (Chemi-Luminescence Immune Assay) Kit was used to analyze Testosterone, Estradiol E2, FSH (Follicle stimulating hormone), and LH (Luteinizing hormone). Analysis was completed within 48 hrs after blood extraction (Laboratory Medicine Department, Chung-Ang University Hospital), and detailed method is as follows; One-way ANOVA was used to verify the comparison between the vehicle and PEP-1, and between different doses of PEP-1. For further analysis, Duncan test was used as parametric test and Dunnett's test as non-parametric test. p<0.05 represents the statistical significance, and all statistical analysis was carried out with SPSS 10.1.
FSH was analyzed using the samples prepared from example 2. 100 μL of serum was used for analysis. Fundamentals of analysis is Two-site sandwich immunoassay based on direct chemi-luminescent. As mentioned in example 2, CLIA (Chemi-luminescence immune assay) Kit was used, following the manufacture's protocol.

## EARPALLTSRLRFIPK (listed as Homo sapiens) [PEP-1, hormone secretion modulator / GnRH analog]
G11 Male 100 mg/kg sc 1/day x7, 4 days
  FSH level in blood: 0.23 mIU/mL
G11 Male 100 mg/kg sc 1/day x7, 5 days
  FSH level in blood: 0.21 mIU/mL
G11 Male 100 mg/kg sc 1/day x7, 6 days
  FSH level in blood: 0.12 mIU/mL
G11 Male 100 mg/kg sc 1/day x7, 7 days
  FSH level in blood: 0.15 mIU/mL
G11 Male 100 mg/kg sc 1/day x7, pre
  FSH level in blood: 0.17 mIU/mL
G12 Female 100 mg/kg sc 1/day x7, 4 hr
  FSH level in blood: 0.23 mIU/mL
G12 Female 100 mg/kg sc 1/day x7, 8 hr
  FSH level in blood: 0.25 mIU/mL
G12 Female 100 mg/kg sc 1/day x7, 2 days
  FSH level in blood: 0.28 mIU/mL
G12 Female 100 mg/kg sc 1/day x7, 3 days
  FSH level in blood: 0.19 mIU/mL
G12 Female 100 mg/kg sc 1/day x7, 4 days
  FSH level in blood: 0.15 mIU/mL
G12 Female 100 mg/kg sc 1/day x7, 5 days
  FSH level in blood: 0.21 mIU/mL
G12 Female 100 mg/kg sc 1/day x7, 6 days
  FSH level in blood: 0.1 mIU/mL
G12 Female 100 mg/kg sc 1/day x7, 7 days
  FSH level in blood: 0.12 mIU/mL
G12 Female 100 mg/kg sc 1/day x7, pre
  FSH level in blood: 0.21 mIU/mL
G13 Male 100 mg/kg sc 2/week x2 (days 1,7), 4 hr
  FSH level in blood: 0.21 mIU/mL
G13 Male 100 mg/kg sc 2/week x2 (days 1,7), 8 hr
  FSH level in blood: 0.23 mIU/mL
G13 Male 100 mg/kg sc 2/week x2 (days 1,7), 2 days
  FSH level in blood: 0.24 mIU/mL
G13 Male 100 mg/kg sc 2/week x2 (days 1,7), 3 days
  FSH level in blood: 0.19 mIU/mL
G13 Male 100 mg/kg sc 2/week x2 (days 1,7), 4 days
  FSH level in blood: 0.26 mIU/mL
G13 Male 100 mg/kg sc 2/week x2 (days 1,7), 5 days
  FSH level in blood: 0.37 mIU/mL
G13 Male 100 mg/kg sc 2/week x2 (days 1,7), 6 days
  FSH level in blood: 0.19 mIU/mL
G13 Male 100 mg/kg sc 2/week x2 (days 1,7), 7 days
  FSH level in blood: 0.14 mIU/mL
G13 Male 100 mg/kg sc 2/week x2 (days 1,7), pre
  FSH level in blood: 0.38 mIU/mL
G14 Female 100 mg/kg sc 2/week x2 (days 1,7), 4 hr
  FSH level in blood: 0.48 mIU/mL
G14 Female 100 mg/kg sc 2/week x2 (days 1,7), 8 hr
  FSH level in blood: 0.4 mIU/mL
G14 Female 100 mg/kg sc 2/week x2 (days 1,7), 2 days
  FSH level in blood: 0.23 mIU/mL
G14 Female 100 mg/kg sc 2/week x2 (days 1,7), 3 days
  FSH level in blood: 0.17 mIU/mL
G14 Female 100 mg/kg sc 2/week x2 (days 1,7), 4 days
  FSH level in blood: 0.14 mIU/mL
G14 Female 100 mg/kg sc 2/week x2 (days 1,7), 5 days
  FSH level in blood: 0.24 mIU/mL
G14 Female 100 mg/kg sc 2/week x2 (days 1,7), 6 days
  FSH level in blood: 0.17 mIU/mL
G14 Female 100 mg/kg sc 2/week x2 (days 1,7), 7 days
  FSH level in blood: 0.22 mIU/mL
G14 Female 100 mg/kg sc 2/week x2 (days 1,7), pre
  FSH level in blood: 0.17 mIU/mL
G15 Male 250 mg/kg sc 1/day x7, 4 hr
  FSH level in blood: 0.26 mIU/mL
G15 Male 250 mg/kg sc 1/day x7, 8 hr
  FSH level in blood: 0.35 mIU/mL
G15 Male 250 mg/kg sc 1/day x7, 2 days
  FSH level in blood: 0.44 mIU/mL
G15 Male 250 mg/kg sc 1/day x7, 3 days
  FSH level in blood: 0.12 mIU/mL
G15 Male 250 mg/kg sc 1/day x7, 4 days
  FSH level in blood: 0.23 mIU/mL
G15 Male 250 mg/kg sc 1/day x7, 5 days
  FSH level in blood: 0.25 mIU/mL
G15 Male 250 mg/kg sc 1/day x7, 6 days
  FSH level in blood: 0.1 mIU/mL
G15 Male 250 mg/kg sc 1/day x7, 7 days
  FSH level in blood: 0.12 mIU/mL
G15 Male 250 mg/kg sc 1/day x7, pre
  FSH level in blood: 0.38 mIU/mL
G16 Female 250 mg/kg sc 1/day x7, 4 hr
  FSH level in blood: 0.27 mIU/mL
G16 Female 250 mg/kg sc 1/day x7, 8 hr
  FSH level in blood: 0.3 mIU/mL
G16 Female 250 mg/kg sc 1/day x7, 2 days
  FSH level in blood: 0.34 mIU/mL
G16 Female 250 mg/kg sc 1/day x7, 3 days
  FSH level in blood: 0.20 mIU/mL
G16 Female 250 mg/kg sc 1/day x7, 4 days
  FSH level in blood: 0.12 mIU/mL
G16 Female 250 mg/kg sc 1/day x7, 5 days
  FSH level in blood: 0.19 mIU/mL
G16 Female 250 mg/kg sc 1/day x7, 6 days
  FSH level in blood: 0.18 mIU/mL
G16 Female 250 mg/kg sc 1/day x7, 7 days
  FSH level in blood: 0.08 mIU/mL
G16 Female 250 mg/kg sc 1/day x7, pre
  FSH level in blood: 0.19 mIU/mL
Male and female, Day 1, 4 hr and 8 hr post injection, in particular high doses (G11 to G16)
  Change in FSH level compared to baseline: slight increase
